Reference: patent US20230212549A1, “COMPOUNDS COMPRISING A […] LIGAND AND USE THEREOF” (priority 2021, published 2023)
Numbered stars: 1 amine (or outer) side, 2 acyl side, 3 side chain; on linkers, the order of the positions; unused ones are H or OH. Bridge positions count the residues as written; N and C are the ends. Square brackets hold non-standard residues; d marks the D form. Peptide text beside a SMILES is read from it. mXylylene = c1cc(C[*:1])cc(C[*:2])c1; Mpa = O=C(O)CCS

Tests used:
[1] = 24 h incubation, 37° C.
[2] = 24 h incubation, 37° C.; remark: listed apart in the source
[3] = biological target: T1, FAP-expressing human WI-38 fibroblasts (Homo sapiens, UniProt Q12884); experiment: Competitive FACS binding assay
T1 construct: FAP-expressing human WI-38 fibroblasts (ECACC) were cultured in EMEM; host or cells: WI-38 human fibroblasts
Method: Cells were analyzed in an Attune NxT flow cytometer. […] […].
Cells were analyzed in an Attune NxT flow cytometer. […]

Recombinant human DPP4 = biological target: T2, Recombinant human DPP4 (Homo sapiens, UniProt P27487); experiment: DPP4 protease activity assay; assay type: biochemical
T2 construct: purchased R&D systems 9168-SE

Human recombinant FAP = Human recombinant FAP (Homo sapiens, UniProt Q12884); experiment: FRET-based FAP protease activity assay; assay type: biochemical; set-up: purchased R&D systems 3715-SE; conditions: pIC50 Category (Activity), FRET-based FAP protease activity assay, recombinant human FAP, 37° C.
recombinant human PREP = biological target: T3, recombinant human PREP (Homo sapiens, UniProt P48147); experiment: PREP protease activity assay; assay type: biochemical
T3 construct: purchased R&D systems 4308-SE
T3 sequence (P48147 1-710): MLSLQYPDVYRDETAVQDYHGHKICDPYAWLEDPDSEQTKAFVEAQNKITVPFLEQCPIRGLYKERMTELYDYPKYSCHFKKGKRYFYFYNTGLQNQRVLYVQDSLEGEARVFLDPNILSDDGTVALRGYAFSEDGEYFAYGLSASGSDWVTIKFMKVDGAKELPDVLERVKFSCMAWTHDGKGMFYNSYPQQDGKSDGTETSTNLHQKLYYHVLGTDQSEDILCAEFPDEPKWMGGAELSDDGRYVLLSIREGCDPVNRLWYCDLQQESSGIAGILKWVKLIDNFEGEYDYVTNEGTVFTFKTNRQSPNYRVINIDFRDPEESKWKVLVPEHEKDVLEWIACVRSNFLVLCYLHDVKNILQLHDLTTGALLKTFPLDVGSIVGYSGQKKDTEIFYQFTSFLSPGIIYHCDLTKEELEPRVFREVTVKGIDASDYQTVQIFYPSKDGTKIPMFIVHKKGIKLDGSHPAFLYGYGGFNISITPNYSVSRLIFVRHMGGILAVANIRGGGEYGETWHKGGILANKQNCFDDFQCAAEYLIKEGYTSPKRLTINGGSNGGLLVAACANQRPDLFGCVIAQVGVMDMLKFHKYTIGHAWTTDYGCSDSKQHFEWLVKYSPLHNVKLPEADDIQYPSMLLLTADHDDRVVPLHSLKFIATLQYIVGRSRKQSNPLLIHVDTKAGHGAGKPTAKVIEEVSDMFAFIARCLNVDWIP

[4] = biological target: Ca2+ channel (L, dihydropyridine site) (Rattus norvegicus, UniProt P22002); experiment: biochemical; conditions: read-out: % Inhibition of Specific Binding
Chain of Ca2+ channel (L, dihydropyridine site) (P22002 whole entry): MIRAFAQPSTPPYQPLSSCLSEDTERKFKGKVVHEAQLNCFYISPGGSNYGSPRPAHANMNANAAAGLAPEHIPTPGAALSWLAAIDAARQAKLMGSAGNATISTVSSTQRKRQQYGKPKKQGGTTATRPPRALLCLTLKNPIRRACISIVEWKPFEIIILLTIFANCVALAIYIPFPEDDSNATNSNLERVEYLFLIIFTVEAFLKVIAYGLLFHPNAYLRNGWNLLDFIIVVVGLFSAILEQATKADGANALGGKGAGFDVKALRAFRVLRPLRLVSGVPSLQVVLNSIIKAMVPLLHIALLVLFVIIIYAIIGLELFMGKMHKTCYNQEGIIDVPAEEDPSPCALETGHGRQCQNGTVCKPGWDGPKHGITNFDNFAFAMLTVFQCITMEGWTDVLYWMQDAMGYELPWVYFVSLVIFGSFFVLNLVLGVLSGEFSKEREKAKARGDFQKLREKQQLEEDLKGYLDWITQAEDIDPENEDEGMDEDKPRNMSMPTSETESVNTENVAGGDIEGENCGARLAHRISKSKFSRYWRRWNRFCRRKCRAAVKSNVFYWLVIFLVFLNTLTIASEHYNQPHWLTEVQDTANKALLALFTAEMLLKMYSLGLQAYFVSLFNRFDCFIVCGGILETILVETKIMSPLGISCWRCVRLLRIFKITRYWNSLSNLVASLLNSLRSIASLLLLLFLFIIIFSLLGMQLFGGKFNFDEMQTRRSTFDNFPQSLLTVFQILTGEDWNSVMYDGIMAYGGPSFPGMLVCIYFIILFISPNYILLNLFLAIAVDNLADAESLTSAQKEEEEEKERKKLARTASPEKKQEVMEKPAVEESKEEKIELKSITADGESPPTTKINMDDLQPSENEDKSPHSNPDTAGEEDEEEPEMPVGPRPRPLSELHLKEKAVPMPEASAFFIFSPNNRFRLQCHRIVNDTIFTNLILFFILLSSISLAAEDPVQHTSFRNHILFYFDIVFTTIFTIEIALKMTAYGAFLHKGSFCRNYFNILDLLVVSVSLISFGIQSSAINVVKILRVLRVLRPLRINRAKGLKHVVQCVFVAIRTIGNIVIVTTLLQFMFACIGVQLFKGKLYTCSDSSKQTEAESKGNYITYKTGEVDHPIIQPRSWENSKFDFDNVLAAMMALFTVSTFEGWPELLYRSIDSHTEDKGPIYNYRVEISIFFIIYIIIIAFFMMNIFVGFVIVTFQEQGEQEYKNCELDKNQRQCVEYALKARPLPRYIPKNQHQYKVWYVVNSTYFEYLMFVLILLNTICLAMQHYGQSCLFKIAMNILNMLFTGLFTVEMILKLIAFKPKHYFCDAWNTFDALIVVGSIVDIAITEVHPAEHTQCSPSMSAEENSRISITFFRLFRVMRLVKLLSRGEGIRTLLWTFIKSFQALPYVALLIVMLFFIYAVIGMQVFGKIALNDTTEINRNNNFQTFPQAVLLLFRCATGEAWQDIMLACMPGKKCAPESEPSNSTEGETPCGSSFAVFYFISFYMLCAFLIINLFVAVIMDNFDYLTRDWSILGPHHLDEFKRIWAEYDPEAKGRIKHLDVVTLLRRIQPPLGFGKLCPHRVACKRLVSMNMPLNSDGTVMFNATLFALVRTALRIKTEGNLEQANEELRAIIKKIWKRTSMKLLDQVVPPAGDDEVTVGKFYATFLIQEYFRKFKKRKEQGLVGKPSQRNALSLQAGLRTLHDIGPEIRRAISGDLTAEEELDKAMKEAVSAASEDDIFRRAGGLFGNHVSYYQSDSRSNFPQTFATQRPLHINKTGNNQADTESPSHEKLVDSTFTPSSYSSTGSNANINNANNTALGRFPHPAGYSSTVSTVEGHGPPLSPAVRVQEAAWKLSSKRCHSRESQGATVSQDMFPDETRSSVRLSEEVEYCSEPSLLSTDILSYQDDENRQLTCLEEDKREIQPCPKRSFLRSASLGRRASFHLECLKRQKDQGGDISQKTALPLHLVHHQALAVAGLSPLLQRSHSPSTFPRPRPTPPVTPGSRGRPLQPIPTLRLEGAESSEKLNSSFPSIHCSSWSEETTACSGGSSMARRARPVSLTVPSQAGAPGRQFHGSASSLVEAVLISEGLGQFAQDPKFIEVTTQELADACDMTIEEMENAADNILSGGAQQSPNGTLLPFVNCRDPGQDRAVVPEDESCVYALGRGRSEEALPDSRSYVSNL

T2 sequence (P27487 whole entry): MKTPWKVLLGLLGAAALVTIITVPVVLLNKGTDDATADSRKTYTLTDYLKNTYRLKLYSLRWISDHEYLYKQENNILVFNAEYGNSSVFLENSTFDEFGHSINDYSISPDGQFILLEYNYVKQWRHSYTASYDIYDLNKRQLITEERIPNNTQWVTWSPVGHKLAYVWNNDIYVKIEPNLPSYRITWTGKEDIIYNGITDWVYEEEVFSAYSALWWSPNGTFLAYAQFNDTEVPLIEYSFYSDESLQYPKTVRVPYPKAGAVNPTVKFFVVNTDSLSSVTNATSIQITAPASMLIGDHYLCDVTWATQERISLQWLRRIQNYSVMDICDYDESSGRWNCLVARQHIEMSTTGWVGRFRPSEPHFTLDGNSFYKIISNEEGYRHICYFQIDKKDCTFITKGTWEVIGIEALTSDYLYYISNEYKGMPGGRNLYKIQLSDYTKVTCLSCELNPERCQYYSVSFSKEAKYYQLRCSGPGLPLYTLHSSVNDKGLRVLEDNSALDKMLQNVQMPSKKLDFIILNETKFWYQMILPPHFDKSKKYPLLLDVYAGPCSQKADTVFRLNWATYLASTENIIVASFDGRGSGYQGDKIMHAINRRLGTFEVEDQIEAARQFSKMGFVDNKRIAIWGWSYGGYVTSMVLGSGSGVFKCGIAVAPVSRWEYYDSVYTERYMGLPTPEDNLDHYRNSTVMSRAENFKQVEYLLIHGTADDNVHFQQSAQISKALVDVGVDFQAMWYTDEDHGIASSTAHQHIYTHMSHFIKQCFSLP
T1 sequence (Q12884 whole entry): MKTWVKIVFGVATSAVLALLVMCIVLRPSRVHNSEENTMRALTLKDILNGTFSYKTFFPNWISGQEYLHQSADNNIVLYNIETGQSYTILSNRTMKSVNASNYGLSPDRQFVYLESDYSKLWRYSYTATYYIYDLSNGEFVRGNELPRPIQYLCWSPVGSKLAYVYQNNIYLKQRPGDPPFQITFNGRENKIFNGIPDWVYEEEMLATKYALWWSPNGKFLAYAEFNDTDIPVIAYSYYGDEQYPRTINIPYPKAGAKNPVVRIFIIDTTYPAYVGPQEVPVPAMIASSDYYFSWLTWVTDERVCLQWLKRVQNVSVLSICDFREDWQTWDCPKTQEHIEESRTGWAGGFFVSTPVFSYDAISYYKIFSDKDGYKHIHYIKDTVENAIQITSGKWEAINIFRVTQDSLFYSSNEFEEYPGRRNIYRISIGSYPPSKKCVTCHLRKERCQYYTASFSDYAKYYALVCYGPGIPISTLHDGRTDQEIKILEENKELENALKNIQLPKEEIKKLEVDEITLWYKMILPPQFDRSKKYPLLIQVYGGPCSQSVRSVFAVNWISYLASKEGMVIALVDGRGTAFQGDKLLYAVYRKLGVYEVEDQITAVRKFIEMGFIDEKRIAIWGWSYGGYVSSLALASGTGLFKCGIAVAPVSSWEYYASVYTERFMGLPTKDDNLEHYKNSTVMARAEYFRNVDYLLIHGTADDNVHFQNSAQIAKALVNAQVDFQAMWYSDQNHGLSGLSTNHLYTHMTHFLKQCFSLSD
Chain of Human recombinant FAP (Q12884 whole entry): as above

| Structure (SMILES) | % intact compound remaining after incubation, Human plasma [1] | % intact compound remaining after incubation, Rat plasma [2] | other results |
| --- | --- | --- | --- |
| CCCCCC(=O)N[C@H]1CSCc2cc(CSCCNC(=O)CN3CCN(CC(=O)O)CCN(CC(=O)O)CCN(CC(=O)O)CC3)cc(c2)CSC[C@@H](C(=O)O)NC(=O)[C@H](Cc2ccccc2)NC(=O)[C@H](CCC(N)=O)NC(=O)[C@H]([C@@H](C)O)NC(=O)[C@@H]2CCCN2C(=O)[C@@H]2CCCN2C1=O [3BP-3624, Hex-[Cys(tMeBn(LuDOTA-AET))-Pro-Pro-Thr-Gln-Phe-Cys]-OH] | 100% (24 h) | 100% (24 h) |  |
| C[C@@H](O)[C@@H]1NC(=O)[C@@H]2CCCN2C(=O)[C@@H]2CCCN2C(=O)CCSCc2cccc(c2)CSC[C@@H](C(=O)N[C@@H](CC(=O)O)C(N)=O)NC(=O)[C@H](Cc2ccccc2)NC(=O)[C@H](CCC(N)=O)NC1=O [3BP-3419, [3MeBn-Spa-Pro-Pro-Thr-Gln-Phe-Cys]-Asp-NH2] ([Mpa]PPTQFCD-NH2; linker 1-7 via mXylylene) |  |  | IC50 [3]: 100 to 794 nM; IC50 (Recombinant human DPP4): > 1000 nM; IC50 (Human recombinant FAP): 100 to 794 nM; IC50 (recombinant human PREP): > 1000 nM |
| CCCCCC(=O)N[C@H]1CSCc2cc(CSCCNC(=O)CN3CCN(CC(=O)O)CCN(CC(=O)O)CCN(CC(=O)O)CC3)cc(c2)CSC[C@@H](C(=O)O)NC(=O)[C@H](Cc2ccccc2)NC(=O)[C@H](CCC(N)=O)NC(=O)[C@H]([C@@H](C)O)NC(=O)[C@@H]2CCCN2C(=O)[C@@H]2CCCN2C1=O [3BP-3554, Hex-[Cys(tMeBn(DOTA-AET))-Pro-Pro-Thr-Gln-Phe-Cys]-OH] | 100% (24 h) | 100% (24 h) | inhibition at 10 µM [4]: 54% |
| CCCC[C@H](NC(=O)CCC(=O)NCCCOCCOCCOCCCNC(=O)CN1CCN(CC(=O)O)CCN(CC(=O)O)CCN(CC(=O)O)CC1)C(=O)N[C@H]1CSCc2cccc(c2)CSC[C@@H](C(=O)NCCC(=O)O)NC(=O)[C@H](Cc2ccccc2)NC(=O)[C@H](CCC(N)=O)NC(=O)[C@H]([C@@H](C)O)NC(=O)[C@@H]2CCCN2C(=O)[C@@H]2CCCN2C1=O [3BP-3398, DOTA-Ttds-Nle-[Cys(3MeBn)-Pro-Pro-Thr-Gln-Phe-Cys]-Bal-OH] | 99% (24 h) |  |  |
| CCCCCC(=O)N[C@H]1CSCc2cccc(c2)CSC[C@@H](C(=O)N[C@@H](CCCCNC(=O)CN2CCN(CC(=O)O)CCN(CC(=O)O)CCN(CC(=O)O)CC2)CC(=O)O)NC(=O)[C@H](Cc2ccccc2)NC(=O)[C@H](CCC(N)=O)NC(=O)[C@H]([C@@H](C)O)NC(=O)[C@@H]2CCCN2C(=O)[C@@H]2CCCN2C1=O [3BP-3397, Hex-[Cys(3MeBn)-Pro-Pro-Thr-Gln-Phe-Cys]-Bhk(DOTA)-OH] | 100% (24 h) |  |  |
